We go through ten compounds from ChEMBL document CHEMBL5465560, “Selectivity Literature for EUbOPEN Chemogenomic Library” (2024).

For assay [1], the target named is ALK tyrosine kinase receptor (Homo sapiens, UniProt Q9UM73). As to the kind of experiment: Selectivity interaction (ProQinase) EUB0000171b ALK. The note with it: at 5 µM.
Assay [2] addresses Serine/threonine-protein kinase 32A (Homo sapiens) (UniProt Q8WU08). To be noted: at 10 µM.
Assay [3] has as its target T1, Ephrin type-B receptor 6 (Homo sapiens) (UniProt O15197).
T1 sequence (whole entry): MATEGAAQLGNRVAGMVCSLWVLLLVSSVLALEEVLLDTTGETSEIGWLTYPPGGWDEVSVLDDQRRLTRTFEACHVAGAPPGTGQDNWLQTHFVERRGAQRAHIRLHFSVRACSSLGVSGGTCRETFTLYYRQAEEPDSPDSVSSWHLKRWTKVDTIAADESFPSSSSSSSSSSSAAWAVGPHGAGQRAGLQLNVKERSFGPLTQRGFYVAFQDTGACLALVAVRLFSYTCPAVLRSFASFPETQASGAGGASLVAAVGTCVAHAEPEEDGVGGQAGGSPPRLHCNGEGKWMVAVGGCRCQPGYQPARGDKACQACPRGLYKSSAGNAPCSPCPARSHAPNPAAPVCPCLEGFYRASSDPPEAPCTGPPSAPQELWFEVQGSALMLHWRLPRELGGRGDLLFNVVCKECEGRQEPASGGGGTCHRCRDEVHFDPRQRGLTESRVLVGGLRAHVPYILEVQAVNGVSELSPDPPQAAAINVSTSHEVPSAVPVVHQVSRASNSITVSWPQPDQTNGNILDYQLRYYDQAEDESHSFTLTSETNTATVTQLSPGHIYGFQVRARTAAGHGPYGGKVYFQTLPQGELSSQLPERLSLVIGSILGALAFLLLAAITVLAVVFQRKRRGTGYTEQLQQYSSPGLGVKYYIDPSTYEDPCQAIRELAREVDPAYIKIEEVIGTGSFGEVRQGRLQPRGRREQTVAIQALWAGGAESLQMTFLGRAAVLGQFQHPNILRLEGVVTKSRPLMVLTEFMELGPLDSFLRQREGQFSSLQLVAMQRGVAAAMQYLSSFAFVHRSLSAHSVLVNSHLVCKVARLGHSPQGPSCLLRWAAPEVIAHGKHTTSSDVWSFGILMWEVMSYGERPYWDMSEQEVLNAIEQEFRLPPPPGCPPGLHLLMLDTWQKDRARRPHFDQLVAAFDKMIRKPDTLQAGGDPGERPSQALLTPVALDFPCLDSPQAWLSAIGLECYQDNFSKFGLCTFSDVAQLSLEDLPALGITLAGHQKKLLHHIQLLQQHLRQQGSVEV
As to the kind of experiment: Selectivity interaction (Ambit KINOMEscan and KiNATiv profiling in Jurkat cells) EUB0000090b EPHB6. In kind it is cell-based. The note with it: at 1 µM.

The target of assay [4] is Myosin light chain kinase 2, skeletal/cardiac muscle (Homo sapiens) (UniProt Q9H1R3). As to the kind of experiment: Selectivity interaction (Ambit KINOMEscan and KiNATiv profiling in Jurkat cells) EUB0000090b MYLK2. In kind it is cell-based. To be noted: at 1 µM.
For assay [5], the target named is Serine/threonine-protein kinase PAK 1 (Homo sapiens) (UniProt Q13153). As to the kind of experiment: Selectivity interaction (Ambit KINOMEscan and KiNATiv profiling in Jurkat cells) EUB0000090b PAK1. The format is cell-based. The note with it: at 1 µM.
Assay [6] deals with Substance-P receptor (Homo sapiens) (UniProt P25103). As to the kind of experiment: Selectivity interaction (Panel of kinases, GPCRs, ion channels and transporters (enzymatic assay)) EUB0000223bCl TACR1.
For assay [7], the target named is T2, Serine/threonine-protein kinase TAO1 (Homo sapiens) (UniProt Q7L7X3).
T2 sequence (whole entry): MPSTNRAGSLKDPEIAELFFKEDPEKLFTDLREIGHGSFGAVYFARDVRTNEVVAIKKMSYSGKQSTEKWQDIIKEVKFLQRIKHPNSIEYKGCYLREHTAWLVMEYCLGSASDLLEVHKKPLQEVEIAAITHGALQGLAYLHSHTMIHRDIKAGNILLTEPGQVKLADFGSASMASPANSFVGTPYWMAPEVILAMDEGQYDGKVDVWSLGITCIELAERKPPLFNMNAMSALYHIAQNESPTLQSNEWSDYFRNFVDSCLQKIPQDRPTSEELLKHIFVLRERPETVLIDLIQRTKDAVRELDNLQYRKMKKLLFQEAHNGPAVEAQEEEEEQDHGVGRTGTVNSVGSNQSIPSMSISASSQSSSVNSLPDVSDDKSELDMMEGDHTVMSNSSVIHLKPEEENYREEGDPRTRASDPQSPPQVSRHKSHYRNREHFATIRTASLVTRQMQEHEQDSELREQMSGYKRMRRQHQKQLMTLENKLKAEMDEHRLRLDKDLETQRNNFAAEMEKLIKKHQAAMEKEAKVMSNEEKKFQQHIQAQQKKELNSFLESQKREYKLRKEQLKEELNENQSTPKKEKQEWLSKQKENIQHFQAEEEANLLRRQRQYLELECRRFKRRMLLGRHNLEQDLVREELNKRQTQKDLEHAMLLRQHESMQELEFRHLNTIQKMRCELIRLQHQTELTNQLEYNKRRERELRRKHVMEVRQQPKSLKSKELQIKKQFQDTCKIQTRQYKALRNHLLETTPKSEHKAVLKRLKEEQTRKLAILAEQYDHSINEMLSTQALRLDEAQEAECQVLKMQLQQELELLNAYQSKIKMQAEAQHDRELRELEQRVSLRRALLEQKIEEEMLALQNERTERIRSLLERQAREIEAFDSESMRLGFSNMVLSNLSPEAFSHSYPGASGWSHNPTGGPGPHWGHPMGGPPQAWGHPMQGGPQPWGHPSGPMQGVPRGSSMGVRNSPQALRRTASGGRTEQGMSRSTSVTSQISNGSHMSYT
As to the kind of experiment: Selectivity interaction (KinomeScan (DiscoverX)) EUB0000666a TAOK1. The note with it: at 10 µM.

Assay [8] addresses Serine/threonine-protein kinase WNK1 (Homo sapiens) (UniProt Q9H4A3). As to the kind of experiment: Selectivity interaction (KinomeScan (DiscoverX)) EUB0000607a WNK1. To be noted: at 10 µM.
In assay [9] the target is Mitogen-activated protein kinase kinase kinase 11 (Homo sapiens) (UniProt Q16584). As to the kind of experiment: Selectivity interaction (Kinase panel (Invitrogen)) EUB0000639a MAP3K11. To be noted: at 200 nM.
For assay [10], the target named is Dual specificity mitogen-activated protein kinase kinase 1 (Homo sapiens, UniProt Q02750). As to the kind of experiment: Selectivity interaction (KinomeScan (DiscoverX)) EUB0000229b MAP2K1. The note with it: at 10 µM.
Assay [11] concerns the target Protein kinase C theta type (Homo sapiens, UniProt Q04759). As to the kind of experiment: Selectivity interaction (KinomeScan (DiscoverX)) EUB0001619a PRKCQ. The note with it: at 1 µM.
Assay [12] deals with Mast/stem cell growth factor receptor Kit (Homo sapiens), P10721 [A829P]. As to the kind of experiment: (§1) Selectivity interaction (KinomeScan (DiscoverX)) EUB0000618a KIT. The note with it: at 10 µM.
The test system of assay [13] is Mast/stem cell growth factor receptor Kit (Homo sapiens), P10721 [D816V]. Described as §1. The note with it: at 10 µM.
The subject of assay [14] is Mast/stem cell growth factor receptor Kit (Homo sapiens), P10721 [L576P]. The assay is described as §1. To be noted: at 10 µM.
The test system of assay [15] is Mast/stem cell growth factor receptor Kit (Homo sapiens), P10721 [V559D,V654A]. The description is as §1. The note with it: at 10 µM.
Assay [16] deals with Mast/stem cell growth factor receptor Kit (Homo sapiens, UniProt P10721). The description is as §1. The note with it: at 10 µM.

Myosin light chain kinase 2, skeletal/cardiac muscle (Homo sapiens), sequence (Q9H1R3 whole entry): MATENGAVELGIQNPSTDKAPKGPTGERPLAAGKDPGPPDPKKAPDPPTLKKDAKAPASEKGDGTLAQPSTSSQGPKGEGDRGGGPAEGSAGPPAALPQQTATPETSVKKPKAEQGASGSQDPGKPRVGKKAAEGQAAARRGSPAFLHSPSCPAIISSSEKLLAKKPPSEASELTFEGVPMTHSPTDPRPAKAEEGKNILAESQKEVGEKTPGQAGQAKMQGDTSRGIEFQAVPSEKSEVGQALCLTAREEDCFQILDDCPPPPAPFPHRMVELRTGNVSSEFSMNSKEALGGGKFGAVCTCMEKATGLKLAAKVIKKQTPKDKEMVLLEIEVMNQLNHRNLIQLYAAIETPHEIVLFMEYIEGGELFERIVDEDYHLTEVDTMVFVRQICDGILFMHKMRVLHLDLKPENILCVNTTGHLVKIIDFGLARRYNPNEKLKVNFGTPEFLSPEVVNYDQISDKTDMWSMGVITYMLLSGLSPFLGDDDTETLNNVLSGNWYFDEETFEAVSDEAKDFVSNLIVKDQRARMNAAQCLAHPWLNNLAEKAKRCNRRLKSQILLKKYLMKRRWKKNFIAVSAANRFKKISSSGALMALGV
Dual specificity mitogen-activated protein kinase kinase 1, sequence (Q02750 whole entry): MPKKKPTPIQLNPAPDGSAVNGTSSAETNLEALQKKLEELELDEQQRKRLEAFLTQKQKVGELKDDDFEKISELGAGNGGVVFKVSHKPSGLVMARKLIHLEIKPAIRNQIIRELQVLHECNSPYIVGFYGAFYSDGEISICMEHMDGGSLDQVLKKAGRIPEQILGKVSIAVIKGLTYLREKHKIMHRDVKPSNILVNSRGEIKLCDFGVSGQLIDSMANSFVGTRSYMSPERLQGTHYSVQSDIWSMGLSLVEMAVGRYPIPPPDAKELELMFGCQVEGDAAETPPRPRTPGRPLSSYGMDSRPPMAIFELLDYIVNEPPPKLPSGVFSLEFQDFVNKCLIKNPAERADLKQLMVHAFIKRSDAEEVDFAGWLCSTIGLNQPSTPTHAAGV
Serine/threonine-protein kinase WNK1 (Homo sapiens), sequence (Q9H4A3 whole entry, looked up): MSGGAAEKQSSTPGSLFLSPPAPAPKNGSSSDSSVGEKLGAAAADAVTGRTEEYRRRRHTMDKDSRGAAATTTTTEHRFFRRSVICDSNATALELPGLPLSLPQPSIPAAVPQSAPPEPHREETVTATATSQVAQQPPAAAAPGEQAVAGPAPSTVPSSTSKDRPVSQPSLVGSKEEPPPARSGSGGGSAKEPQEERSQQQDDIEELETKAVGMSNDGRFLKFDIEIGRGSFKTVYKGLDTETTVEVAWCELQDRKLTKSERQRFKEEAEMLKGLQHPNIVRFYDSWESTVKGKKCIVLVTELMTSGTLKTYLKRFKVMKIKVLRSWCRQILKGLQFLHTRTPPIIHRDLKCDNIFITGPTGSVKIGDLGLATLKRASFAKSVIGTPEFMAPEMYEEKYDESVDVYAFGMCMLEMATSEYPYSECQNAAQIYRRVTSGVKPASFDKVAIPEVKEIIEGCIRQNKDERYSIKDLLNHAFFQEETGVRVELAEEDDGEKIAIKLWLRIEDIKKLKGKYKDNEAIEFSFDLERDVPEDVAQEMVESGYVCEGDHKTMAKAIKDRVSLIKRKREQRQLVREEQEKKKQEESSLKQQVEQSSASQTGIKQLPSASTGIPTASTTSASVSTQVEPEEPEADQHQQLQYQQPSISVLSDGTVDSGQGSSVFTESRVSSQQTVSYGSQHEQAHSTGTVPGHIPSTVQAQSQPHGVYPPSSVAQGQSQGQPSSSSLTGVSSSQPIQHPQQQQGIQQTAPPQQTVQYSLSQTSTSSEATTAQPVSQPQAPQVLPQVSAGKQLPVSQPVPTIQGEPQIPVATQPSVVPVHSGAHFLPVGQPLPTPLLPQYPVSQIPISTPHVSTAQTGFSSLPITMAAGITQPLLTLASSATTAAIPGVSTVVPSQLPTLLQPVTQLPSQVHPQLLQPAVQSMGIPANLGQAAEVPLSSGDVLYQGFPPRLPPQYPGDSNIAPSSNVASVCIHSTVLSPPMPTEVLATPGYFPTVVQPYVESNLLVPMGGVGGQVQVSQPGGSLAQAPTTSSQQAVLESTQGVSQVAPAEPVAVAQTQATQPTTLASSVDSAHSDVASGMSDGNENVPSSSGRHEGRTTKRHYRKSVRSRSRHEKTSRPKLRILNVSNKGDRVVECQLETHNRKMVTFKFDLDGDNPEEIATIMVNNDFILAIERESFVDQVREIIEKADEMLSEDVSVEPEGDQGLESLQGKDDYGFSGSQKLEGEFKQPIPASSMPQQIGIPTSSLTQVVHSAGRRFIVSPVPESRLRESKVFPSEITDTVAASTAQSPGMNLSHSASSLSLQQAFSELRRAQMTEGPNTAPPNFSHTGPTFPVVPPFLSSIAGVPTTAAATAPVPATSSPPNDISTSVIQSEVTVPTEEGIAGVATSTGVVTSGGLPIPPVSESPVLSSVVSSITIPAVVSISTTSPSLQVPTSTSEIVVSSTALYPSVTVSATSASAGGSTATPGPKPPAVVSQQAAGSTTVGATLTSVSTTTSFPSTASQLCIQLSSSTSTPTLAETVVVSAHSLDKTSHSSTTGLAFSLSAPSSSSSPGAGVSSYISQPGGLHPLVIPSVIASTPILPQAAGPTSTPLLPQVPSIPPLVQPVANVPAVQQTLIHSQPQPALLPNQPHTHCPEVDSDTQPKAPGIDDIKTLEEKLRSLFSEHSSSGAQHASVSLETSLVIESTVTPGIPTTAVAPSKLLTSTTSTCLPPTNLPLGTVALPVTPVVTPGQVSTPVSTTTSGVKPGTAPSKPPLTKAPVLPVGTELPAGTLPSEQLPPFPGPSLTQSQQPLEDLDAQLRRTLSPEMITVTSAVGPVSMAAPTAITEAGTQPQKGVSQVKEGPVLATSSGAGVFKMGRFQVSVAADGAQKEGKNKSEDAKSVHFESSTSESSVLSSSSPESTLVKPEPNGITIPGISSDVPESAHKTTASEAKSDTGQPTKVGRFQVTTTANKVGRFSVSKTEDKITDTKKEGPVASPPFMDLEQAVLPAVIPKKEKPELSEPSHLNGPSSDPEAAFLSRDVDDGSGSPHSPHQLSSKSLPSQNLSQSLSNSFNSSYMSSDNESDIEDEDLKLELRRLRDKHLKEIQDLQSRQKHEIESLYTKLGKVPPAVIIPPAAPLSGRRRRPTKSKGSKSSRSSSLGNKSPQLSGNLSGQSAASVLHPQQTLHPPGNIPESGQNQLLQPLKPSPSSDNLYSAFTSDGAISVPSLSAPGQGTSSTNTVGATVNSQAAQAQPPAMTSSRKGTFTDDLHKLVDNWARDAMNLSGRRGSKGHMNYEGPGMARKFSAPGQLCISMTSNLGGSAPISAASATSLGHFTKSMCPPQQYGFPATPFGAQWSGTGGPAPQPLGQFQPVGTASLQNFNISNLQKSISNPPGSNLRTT
ALK tyrosine kinase receptor, sequence (Q9UM73 19-1620 limits assumed): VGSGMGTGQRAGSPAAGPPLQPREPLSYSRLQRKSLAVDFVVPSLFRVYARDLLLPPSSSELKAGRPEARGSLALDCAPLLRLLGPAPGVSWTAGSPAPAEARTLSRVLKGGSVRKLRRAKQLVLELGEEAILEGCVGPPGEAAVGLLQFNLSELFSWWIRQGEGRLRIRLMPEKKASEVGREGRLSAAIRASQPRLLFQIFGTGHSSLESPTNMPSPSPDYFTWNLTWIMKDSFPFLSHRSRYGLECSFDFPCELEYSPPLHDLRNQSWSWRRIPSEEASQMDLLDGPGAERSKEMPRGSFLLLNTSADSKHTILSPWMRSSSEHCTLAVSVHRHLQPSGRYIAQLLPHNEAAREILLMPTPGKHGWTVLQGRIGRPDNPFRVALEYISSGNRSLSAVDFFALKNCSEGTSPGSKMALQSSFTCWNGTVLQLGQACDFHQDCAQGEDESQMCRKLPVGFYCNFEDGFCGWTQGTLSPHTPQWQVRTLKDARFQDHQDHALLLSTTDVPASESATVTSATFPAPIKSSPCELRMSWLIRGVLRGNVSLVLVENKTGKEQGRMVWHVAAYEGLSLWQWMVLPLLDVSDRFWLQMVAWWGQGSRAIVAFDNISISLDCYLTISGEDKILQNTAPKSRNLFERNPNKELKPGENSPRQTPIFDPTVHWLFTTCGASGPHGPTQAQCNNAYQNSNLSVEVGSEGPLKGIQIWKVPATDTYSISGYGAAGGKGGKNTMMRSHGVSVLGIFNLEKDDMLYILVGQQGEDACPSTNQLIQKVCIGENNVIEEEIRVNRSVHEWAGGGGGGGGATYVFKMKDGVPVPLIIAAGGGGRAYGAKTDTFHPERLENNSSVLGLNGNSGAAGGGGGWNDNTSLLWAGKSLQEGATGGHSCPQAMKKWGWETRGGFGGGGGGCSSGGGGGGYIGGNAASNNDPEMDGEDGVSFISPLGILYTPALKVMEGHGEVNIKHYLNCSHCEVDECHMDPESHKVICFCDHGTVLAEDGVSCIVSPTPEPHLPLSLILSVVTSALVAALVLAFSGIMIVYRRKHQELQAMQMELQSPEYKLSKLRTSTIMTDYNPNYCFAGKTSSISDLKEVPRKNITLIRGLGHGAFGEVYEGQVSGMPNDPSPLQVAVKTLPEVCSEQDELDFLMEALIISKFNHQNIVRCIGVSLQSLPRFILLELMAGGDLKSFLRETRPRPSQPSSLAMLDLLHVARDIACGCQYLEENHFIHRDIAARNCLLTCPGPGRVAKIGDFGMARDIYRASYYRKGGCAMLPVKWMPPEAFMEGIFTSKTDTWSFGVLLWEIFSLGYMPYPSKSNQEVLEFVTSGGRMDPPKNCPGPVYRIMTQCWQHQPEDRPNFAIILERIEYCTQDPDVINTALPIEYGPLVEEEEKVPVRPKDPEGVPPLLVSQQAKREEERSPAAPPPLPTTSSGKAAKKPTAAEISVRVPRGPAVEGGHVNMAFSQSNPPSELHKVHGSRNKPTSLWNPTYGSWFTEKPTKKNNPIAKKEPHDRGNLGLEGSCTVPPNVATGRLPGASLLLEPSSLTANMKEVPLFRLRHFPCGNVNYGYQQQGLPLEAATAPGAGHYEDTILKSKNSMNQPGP

In assay [1], `C=CC(=O)Nc1cccc(C(=O)Nc2ccc(Nc3cc(-c4[nH]c(SC)nc4C)ccn3)cc2)c1` registered a % of control of 96%.

The compound `Cc1cc([C@@H](C)Nc2ccccc2C(=O)O)c2nc(N3CCOCC3)cc(=O)n2c1` [AZD-6482] showed a % of control in assay [2] of 89%.

`CN(C)C/C=C/C(=O)Nc1ccc(C(=O)N2CCCC(Nc3ncc(Cl)c(-c4c[nH]c5ccccc45)n3)C2)cc1` (stereo unspecified): the % of control in [3] was 76%; in assay [4], 91%; in [5] it was 83%.

Consider `COc1cc(C(=O)N2CC[C@@H](O)[C@@H](N)C2)cc2nc(-c3cc4ccccc4n3CC3CC3)n(C)c12`, for which the pXC50 in assay [6] was less than 4.4 M.

In the case of `O=C(NOC[C@H](O)CO)c1ccc(F)c(F)c1Nc1ccc(I)cc1F`, the % of control in assay [7] amounted to 100%.

As to `CNC(=O)Nc1ccc(-c2nc(N3CC4CCC(C3)O4)c3cnn(C4CCC5(CC4)OCCO5)c3n2)cc1`, in assay [8], the % of control was 95%.

Turning to `CC[C@@H]1[C@H](F)C(=O)N[C@@H]1COc1nccc2cc(C(N)=O)c(OC)cc12` [ZIMLOVISERTIB], the % of inhibition in assay [9] turned out to be 0.995%.

With `COc1cc(N(C)c2ccnc3ccc(C(F)(F)F)cc23)cc(OC)c1OC`, the % binding in [10] was 68%.

The compound `N#Cc1cccc(-c2c[nH]c3ncnc(N4CCOCC4)c23)c1` returned a % of control in [11] of 77%.

As for `O[C@H]1CC[C@H](Nc2ncc3nc(Nc4c(F)cc(F)cc4F)n([C@H]4CCOC4)c3n2)CC1`, the % of control in assay [12] was found to be 77%; in assay [13] it was 84%; in assay [14] it was 95%; in assay [15], 68%; in assay [16], 96%.
